Measured values as given in patent US9782464B2, “Methods and compositions for inhibiting diseases of the central nervous system” (Board of Regents of the University of Nebraska, priority 2008, dated 2017).

Legend:
[1] = test system: primary microglia; test: Flow cytometry of active caspase-3 and cathepsin B (CB) in microglia; assay type: cell-based, mouse; details: N-α-syn-stimulated cultures
Method: Samples from cell fractions were labeled with fluorescently labeled Abs to CD4, CD8, CD25, CTLA-4, CD62L, Fas ligand (FasL), Fas (APO-1), CD1 b, and intracellular FoxP3 (eBioscience) and active caspase-3 (Abcam) and analyzed with a FACSCalibur flow cytometer (BD Biosciences). FITC-latex beads ([…], 2.5% solids; Sigma-Aldrich) were added to microglial cultures for 30 minutes. Microglia were then detached and acid-washed (PBS, pH 6.0) to quench fluorescence of nonphagocytosed beads, and cells were analyzed by flow cytometry and gated to CD11b+ cells. Fluorescence intensity was normalized to beads alone.
Apoptotic cells were detected using the TACS TdT Fluorescein In Situ Apoptosis Detection kit (R&D Systems) according to the manufacturer's protocol and were visualized by a fluorescent microscope. MFI of TUNEL+ cells was determined per field using ImageJ and was normalized to DAPI-stained nuclei (n=3, six fields per well). Caspase activity was determined using the SensoLyte Homogeneous Rh110 Caspase-3/7 Assay kit (AnaSpec) according to the manufacturer's protocol. Cell viability was determined by 3-(4,5-dimethylthiazol-2-yl)-2,5-diphenyl tetrazolium bromide (MTT) activity as described previously. Functional grade Abs to mouse FasL (2 μg/ml; eBioscience) and Fas (5 μg/ml; BD PharMingen) and CA074ME (BIOMOL) were used.

[2] = test system: MES23.5 cells; test: Cathepsin B inhibition and neurotoxicity, microglial supernatants on MES23.5 cells; assay type: cell-based; details: inhibitor 1 μM, N-α-syn 100 nM
Method: MES 23.5 cells were cultured in 75-cm^2 flasks in DMEM/F12 with 15 mM HEPES (Invitrogen) containing N2 supplement (Invitrogen), 100 U/ml of penicillin, 100 μg/ml streptomycin, and 5% FBS. MES23.5 cells is a cell line derived using somatic cell fusion of rat embryonic mesencephalon cells and the murine neuroblastoma-glioma cell line N18TG2 that produce dopamine and express tyrosine hydroxylase (Crawford et al. (1992) J. Neuroscience 12:3392-3398). Cells were grown to 80% confluence then plated at a density of 10×10^4 cells on sterile glass coverslips. Microglia were plated in 6 well plates and incubated for 1 hour with or without 1 μM of cathepsin B inhibitors, CA-074 [cell impermeable] or CA-074 Me [cell permeable] (Sigma), in a 37° C., 5% CO2 incubator to inhibit residual cathepsin B expression (Gan et al. (2004) J. Biol. Chem., 279:5565-5572). […] MES 23.5 cell viability was assessed using the Live/Dead cytotoxicity assay (Invitrogen) as previously described. Live cells were distinguished by the uptake of calcein AM to acquire a green fluorescence [excitation/emission (ex/em) 495/515 nm], while dead cells acquired a red fluorescence (ex/em 495/635 nm) due to the uptake of ethidium homodimer-1 (EthD-1). Cell enumerations were performed using fluorescence microscopy (200× magnification, n=6 wells per group, 3 frames per well).

[3] = test system: SPC (spleen cells); test: Antigen-specific 3H-thymidine proliferation of SPC from immunized mice; assay type: cell-based, mouse
[4] = test system: anti-CD3 stimulated T cells; test: PI uptake cytotoxicity of anti-CD3 stimulated T cells (flow cytometry); assay type: cell-based, mouse; details: 24 hours
Method: To assess α-Syn-mediated cytotoxicity, purified T cells were stimulated with anti-CD3 and cultured at a density of 1×10^6 cells/ml for 24 hours in media alone or in the presence of 4YSyn or N-4YSyn at concentrations of 1, 3, 10, or 30 μg/ml. Cells were stained with PI, washed and the percentages of PI^+ dead cells and MFI were analyzed by flow cytometry.

[5] = test system: effector T cells; test: Treg inhibition of CD3-mediated effector T cell proliferation; assay type: cell-based, mouse; details: Treg from FoxP3-GFP donors, ratio of 1:1
Method: Seven days following treatment, mice were sacrificed and single cell suspensions were prepared from inguinal lymph nodes and spleens. CD4+ T cell populations from spleens and lymph nodes were enriched by negative selection with CD4-enrichment columns (R & D Systems) followed by CD25-PE positive selection with AutoMACS (Miltenyi Biotec). […] Proliferation and inhibition assays were performed as described. MPTP-intoxicated mice received an i.v. tail injection of 5×10^7 SPC or 1×10^6 Treg in 0.25 ml of HBSS.

[6] = test system: TNF-α; test: Cytometric bead array of T cells restimulated with antigen; assay type: cell-based, mouse; details: T cells from N-4YSyn-immunized donors restimulated in vitro
Method: Triplicate co-cultures of antigen presenting cells (APC) and T cells from PBS, 4YSyn- and N-4YSyn-immunized mice were stimulated with 4YSyn or N-4YSyn. After 24 hours of culture, 50 μl samples were collected, centrifuged, and supernatants frozen at −80° C. until utilized. Frozen supernatants were thawed only once and analyzed using the BD Cytometric Bead Array Mouse Th1/Th2 Kit (BD Biosciences, San Jose, Calif.) according to the manufacturer's instructions.

Row | Compound | diminution of active caspase-3+ cells [1] | protection of DA cells v. N-α-syn alone [2] | proliferative response of SPC to in vitro stimulation with the antigen ([3]; B6 mice immunized with N-4YSyn/PBS without adjuvant) | proliferative response of SPC to in vitro stimulation with the antigen ([3]; B10.BR mice immunized in CFA/IFA) | % PI+ T cells ([4]; 1 μg/ml) | MFI of PI-stained T cells ([4]; 1 μg/ml) | % PI+ T cells ([4]; 3 μg/ml) | MFI of PI-stained T cells ([4]; 3 μg/ml) | % PI+ T cells ([4]; 10 μg/ml) | MFI of PI-stained T cells ([4]; 10 μg/ml) | % PI+ T cells ([4]; 30 μg/ml) | MFI of PI-stained T cells ([4]; 30 μg/ml) | inhibition of effector T cell proliferation to anti-CD3 stimulation by Treg [5] | TNF-α levels [6]
1 | CCCNC(=O)[C@H]1O[C@@H]1C(=O)N[C@H](C(=O)N1CCC[C@H]1C(=O)OC)[C@@H](C)CC [CA-074 Me] | 11.1±0.5% | 87% |  |  |  |  |  |  |  |  |  |  |  | 
2 | N-4YSyn: peroxynitrite-nitrated recombinant His-tagged C-terminal 40 aa fragment of mouse α-Syn |  |  | significant lymphocyte proliferative response | significant proliferative responses | 15.9% | 42.8 | 17.9% | 58.7 | 47.8% | 71.6 | 91.3% | 106.1 | 20% | 26.0 ± 1.2 pg/mL
